# From patent US5489600A, “Piperidyl amides, sulfonamides and sulfoxamides as inhibitors of cholesterol biosynthesis” (priority 1994, dated 1996)
# Molecular target: T1, oxidosqualene cyclase (Rattus norvegicus, UniProt P48450)
# T1 construct: Oxidosqualene cyclase is purified from rat liver microsomes; from tissue; host or cells: rat liver microsomes (lauryl maltoside solubilization, FPLC anion-exchange chromatography)
# T1 sequence (P48450 1-733): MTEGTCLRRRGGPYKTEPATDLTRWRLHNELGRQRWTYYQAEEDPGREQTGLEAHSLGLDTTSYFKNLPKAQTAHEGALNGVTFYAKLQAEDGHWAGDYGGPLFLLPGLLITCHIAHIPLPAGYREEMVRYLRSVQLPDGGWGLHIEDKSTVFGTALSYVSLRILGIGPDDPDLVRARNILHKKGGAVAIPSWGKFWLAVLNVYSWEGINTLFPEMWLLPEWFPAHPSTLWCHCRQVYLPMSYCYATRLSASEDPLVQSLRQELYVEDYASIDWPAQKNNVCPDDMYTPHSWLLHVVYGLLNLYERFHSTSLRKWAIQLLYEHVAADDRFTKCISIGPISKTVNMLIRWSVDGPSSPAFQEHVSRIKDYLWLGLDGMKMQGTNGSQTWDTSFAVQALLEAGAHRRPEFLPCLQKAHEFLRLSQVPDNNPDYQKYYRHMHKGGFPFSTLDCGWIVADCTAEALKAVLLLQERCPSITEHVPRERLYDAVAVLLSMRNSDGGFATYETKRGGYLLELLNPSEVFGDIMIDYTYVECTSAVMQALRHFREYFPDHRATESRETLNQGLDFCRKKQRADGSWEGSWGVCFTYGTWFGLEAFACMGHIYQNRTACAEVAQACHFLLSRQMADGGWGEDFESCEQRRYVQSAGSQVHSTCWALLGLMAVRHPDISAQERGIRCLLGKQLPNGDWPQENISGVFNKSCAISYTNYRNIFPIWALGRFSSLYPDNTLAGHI
# Assay: Inhibition of Purified Oxidosqualene Cyclase (I10)
# Assay type: biochemical
# Conditions: 10 μM test compound; oxidosqualene cyclase purified from rat liver microsomes; [3H]squalene monoepoxide 10 μM; pH 7.4
# Procedure: Inhibition of Purified Oxidosqualene Cycloase (I10)
# Oxidosqualene cyclase is purified from rat liver microsomes by the sequential methods of: 1) solubilization with the detergent lauryl maltoside and 2) FPLC anion-exchange chromatography. Compounds are tested to determine their ability to inhibit the conversion of squalene monoepoxide to lanosterol catalyzed by the purified oxidosqualene cyclase. The reaction mixture (final volume, 200 μL), contains potassium phosphate buffer (50 mM, pH 7.4), Na2 EDTA (500 μM), Tween (80 (0.1%), [3H]squalene monoepoxide (10 μM of the racemic mixture, 50 Ci/mol), test compound (10 μM) and purified oxidosqualene cyclase (50 μg). The reagents, prior to mixing are equilibrated at 37° C. for 10 minutes. The reaction is initiated by adding enzyme. The reaction is terminated by the addition of 5 mL of CHCl3 /MeOH (2:1, v/v), 0.8 mL of water and 10 μg each of squalene monoepoxide, squalene diepoxide, lanosterol and cholesterol. The organic layer is isolated and evaporated to dryness under nitrogen. The residue is dissolved in 200 μL of hexane/ethanol (99:1) and the sample is subjected to HPLC separation using a C18 reverse phase column eluted isocratically with 3.6% water in methanol. Radioactivity is quantitated using an in-line scintillation counter. Oxidosqualene cyclase activity is expressed as the percent inhibition of oxidosqualene cyclase activity at 10 μM test compound (I10 values).
# Table 1 provides a summary of the testing data for the inhibition of oxidosqualene cyclase by compounds of formula (I) and formula (II).
row,SMILES,inhibition at 10 µM [%]
1,"CC(C)CCSCCCCC(=O)N1CCC(C(C)CO)CC1 (centres unmarked) [100,759, 1-(1-Oxopentyl-5-isopentylsulfide)-4-[(2-hydroxy-1-methyl)ethyl]piperidine]",76
2,"CC(C)CCSCCCCC(=O)N1CCCCC1 [101,140, 1-(1-Oxopentyl-5-isopentylsulfide)piperidine]",38
3,"CC(CO)C1CCN(C(=O)CCCCSc2ccccc2)CC1 (centres unmarked) [101,550, 1-(1-Oxopentyl-5-phenylsulfide)-4-[(2-hydroxy-1-methyl)ethyl]piperidine]",82

# The remaining lines, values ahead:
row,inhibition at 10 µM [%],SMILES
1,46,"CCCCCCCCCCCC[S+]([O-])N1CCC(C(C)CO)CC1 (centres unmarked) [101,915, 1-(1-Sulfoxododecyl)-4-[(2-hydroxy-1-methyl)ethyl]piperidine]"
2,29,"CCCCCCCCCCCCS(=O)(=O)N1CCC(C(C)CO)CC1 (centres unmarked) [102,055, 1-(1-Sulfonododecyl)-4[(2-hydroxy-1-methyl)ethyl]piperidine]"
